Assay [1] deals with T1, recombinant BRD4 FL bromodomain (Homo sapiens, UniProt O60885).
T1 construct: fused on or other part: 6xHis tag, inferred from detection with Mab ANTI 6HIS-XL665
Description: BRD4 FL TR-FRET displacement assay. The assay is classed as binding. The note with it: for inhibition at 10 µM: read-out: % Inhibition (10 μM); for IC50: dose-response, read-out: IC50 (group A, B, C). As to the method: The potency of compounds to inhibit BRD4 FL enzyme was tested in a TR-FRET displacement assay using recombinant BRD4 FL bromodomain obtained In-house. The assay buffer was 50 mM HEPES (pH 7.5), 50 mM NaCl, 500 μM CHAPS. 10 nM of BRD4 FL & 300 nM of Biotinylated Acetyl histone H4 (Lys 5, 8, 12, 16) (Millipore, USA) was incubated at room temperature for 30 minutes, the reaction was initiated by adding the pre-incubated enzyme ligand mixture to the test compounds. After 30 min incubation, the reaction was stopped by the addition of stop mix containing 1 nM of Europium Streptavidin cryptate (Cisbio, USA) and 5 nM of Mab ANTI 6HIS-XL665 (Cisbio, USA) dilutes in assay buffer containing 2.4M Potassium Fluoride. Fluorescence emission of the samples at 665 and 615 nm were measured at an excitation of 340 nm and their ratio was plotted against the compound concentrations to generate dose-response curve. The percent inhibition of the test compounds is calculated using the ratio of enzyme activity controls.
Selected compounds of the present invention were screened in the above-mentioned assay procedures and IC50 values were determined by fitting the dose-response data to sigmoidal curve fitting equation using Graph pad prism software V7.
(In general: Time-resolved FRET reads energy transfer from a long-lived donor to a nearby acceptor.)

Assay [2] addresses T2, recombinant CREBBP bromodomain (Homo sapiens, UniProt Q92793).
T2 construct: recombinant CREBBP bromodomain obtained from BPS Bioscience, USA; purchased BPS Bioscience, USA
Description: CBP TR-FRET displacement assay. In kind it is binding. The note with it: for IC50: dose-response, read-out: IC50 (group A, B, C); for inhibition at 10 µM: compound at 10 μM. An outline of the steps: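 CREBBP bromodomain (50 nM) preincubated 30 min at room temperature with 500 nM biotinylated ligand in HEPES pH 7.5 buffer with TCEP, then 60 min with compound. Eu-anti-His/APC-streptavidin TR-FRET 665/615 nm ratio read; IC50 from sigmoidal dose-response fit.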

From US20230322724A1, “HETEROCYCLIC COMPOUNDS AS CBP/EP300 BROMODOMAIN INHIBITORS” (AURIGENE ONCOLOGY LIMITED, priority 2020, published 2023) come the findings set out here.

The structures appear in SMILES notation. Read-outs that look alike come from different tables or passages of the source.

T2 sequence (Q92793 1085-1192 limits assumed): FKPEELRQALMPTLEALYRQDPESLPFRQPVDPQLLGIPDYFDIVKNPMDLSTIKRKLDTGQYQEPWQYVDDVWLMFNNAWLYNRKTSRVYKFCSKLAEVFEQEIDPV

One may read the inhibition as the change of the read-out against control, counted positive when it falls. What is called IC50 is the concentration that gives 50% inhibition. Turning to `Cc1cc2c(N3CCN(C(F)F)c4cc(-c5cnn(C)c5)ncc43)cc(N3CCOCC3)cc2n(C)c1=O` [Example 163, 5-(1-(Difluoromethyl)-7-(1-methyl-1H-pyrazol-4-yl)-2,3-dihydropyrido[3,4-b]pyrazin-4(1H)-yl)-1,3-dimethyl-7-morpholinoquinolin-2(1H)-one], in assay [1], the inhibition at 10 µM came to 16%. Further, the IC50 in assay [2] was over 10 nM.
In the case of `Cc1cc2c(N3CCN(C)c4cc(-c5cnn(C)c5)ncc43)cc(OCC(F)F)cc2n(C)c1=O` [Example 130], the inhibition at 10 µM in assay [1] (BRD4 FL, compound at 10 μM) was determined as 48%. Moreover, in assay [2], the IC50 lay within 51 to 100 nM.
Consider `COc1cc(N2CCN(C)c3cc(N4CCC(C)(N)CC4)c(C#N)cc32)c2cc(C)c(=O)n(C)c2c1` [Example 29], for which the IC50 in assay [1] (BRD4 FL) was 2010 to 5000 nM; in assay [2], under 50 nM.
`Cc1cc2c(N3CCN(C)c4ccc(C#N)cc43)cc(OCC(=O)O)cc2n(C)c1=O` [Example 82, 2-((5-(7-Cyano-4-methyl-3,4-dihydroquinoxalin-1(2H)-yl)-1,3-dimethyl-2-oxo-1,2-dihydroquinolin-7-yl)oxy)acetic acid]: the IC50 is 2010 to 5000 nM in assay [1] (BRD4 FL) and 51 to 100 nM in assay [2].
With `COc1cc(N2CCN(C)c3ccc(S(C)(=O)=O)cc32)c2cc(C)c(=O)n(C)c2c1` [Example 100], the figures for the IC50 in assay [1] (BRD4 FL) and in assay [2] were 2010 to 5000 nM and 51 to 100 nM, respectively.
On to `Cc1cc2c(N3CCCc4cc(-c5cnn(C)c5)c(C(F)F)cc43)nc(N3C4CCC3COC4)cc2n(C)c1=O` [Example 218], for which the figures for the IC50 in assay [1] (BRD4 FL) and in assay [2] were 2010 to 5000 nM and under 50 nM, respectively.
As for `Cc1cc2c(N3CCN(C)c4cc(-c5cnn(C)c5)ncc43)cc(C3CCCCC3)cc2n(C)c1=O` [Example 152], the inhibition at 10 µM in assay [1] (BRD4 FL, compound at 10 μM) amounted to 48%. Besides, the IC50 in assay [2] was 51 to 100 nM.
Regarding `Cc1cc2c(N3CCN(CC(=O)O)c4cc(-c5cnn(C)c5)ncc43)cc(N3CCOCC3)cc2n(C)c1=O` [Example 164, 2-(4-(1,3-Dimethyl-7-morpholino-2-oxo-1,2-dihydroquinolin-5-yl)-7-(1-methyl-1H-pyrazol-4-yl)-3,4-dihydropyrido[3,4-b]pyrazin-1(2H)-yl)acetic acid], in assay [1] (BRD4 FL, compound at 10 μM), the inhibition at 10 µM was 38%. Also, the 50% inhibitory concentration (IC50) in assay [2] was in the range of 51 to 100 nM.
Take `Cc1cc2c(N3CCCc4cc(-c5nnn(C)n5)c(C(F)F)cc43)nc(N3CCOCC3)cc2n(C)c1=O` [Example 226]: the IC50 fell in the range of 2010 to 5000 nM in assay [1] (BRD4 FL) and 51 to 100 nM in assay [2].
As to `COc1cc2c(cc(C)c(=O)n2C)c(N2CCCc3cc(-c4cnn(C)c4)c(C(F)F)cc32)n1` [Example 233, 5-(7-(Difluoromethyl)-6-(1-methyl-1H-pyrazol-4-yl)-3,4-dihydroquinolin-1(2H)-yl)-7-methoxy-1,3-dimethyl-1,6-naphthyridin-2(1H)-one], the IC50 in assay [1] (BRD4 FL) fell in the range of 2010 to 5000 nM; in assay [2], 51 to 100 nM.
As for `COc1cc(N2CCN(C)c3ccc(S(=O)(=O)NC(C)=O)cc32)c2cc(C)c(=O)n(C)c2c1` [Example 98], the inhibition at 10 µM in assay [1] (BRD4 FL, compound at 10 μM) came out at 56%. Also, in assay [2], the IC50 is under 50 nM.
For the molecule `CNC(=O)c1ccc(-c2cc3c(cc2F)N(c2cc(OC)cc4c2cc(C)c(=O)n4C)CCN3C)cn1` [Example 31], the IC50 in assay [1] (BRD4 FL) is 2010 to 5000 nM; in assay [2] it was under 50 nM.
As to `CC(=O)N1CCC(c2cc(N3CCN(C)c4cc(-c5cnn(C)c5)ncc43)c3cc(C)c(=O)n(C)c3c2)CC1` [Example 153], the inhibition at 10 µM in assay [1] (BRD4 FL, compound at 10 μM) stood at 45%. In addition, the concentration for half-maximal inhibition (IC50) in assay [2] was under 50 nM.
Consider `Cc1cc2c(N3CCN(C)c4cc(-c5cnn(C)c5)ncc43)cccc2n(C)c1=O` [Example 131], for which the inhibition at 10 µM in assay [1] (BRD4 FL, compound at 10 μM) stood at 52%. In addition, in assay [2], the 50% inhibitory concentration (IC50) was over 10 nM.
Turning to `CN1CCN(c2cccc3[nH]c(=O)ccc23)c2cc(C#N)c(-c3cnn(C)c3)cc21` [Example 52], the inhibition at 10 µM came out at 35% in assay [1] (BRD4 FL, compound at 10 μM) and 83% in assay [2].
As to `COc1cc(N2CCOc3cc(-c4cnn(C)c4)ncc32)c2cc(C)c(=O)n(C)c2c1` [Example 170], the figures for the half-inhibitory concentration (IC50) in assay [1] (BRD4 FL) and in assay [2] were 2010 to 5000 nM and under 50 nM, respectively.
Take `Cc1cc2c(N3CCN(C)c4cc(-c5cnn(C)c5)ncc43)cc(C3CCC(F)(F)CC3)cc2n(C)c1=O` [Example 154]: the concentration for half-maximal inhibition (IC50) in assay [1] (BRD4 FL) was in the range of 2010 to 5000 nM; in assay [2] it was 51 to 100 nM.
As to `CNC(=O)C1CCN(c2cc3c(cc2C#N)N(c2cc(OC)cc4c2cc(C)c(=O)n4C)CCC3)CC1` [Example 181], the IC50 was 2010 to 5000 nM in assay [1] (BRD4 FL) and under 50 nM in assay [2].
The like results for `CNC(=O)c1ccc(-c2cc3c(cc2C#N)N(c2cc(OC)cc4c2cc(C)c(=O)n4C)CCC3)cn1` [Example 183] were, in that order, 2010 to 5000 nM and under 50 nM.
As to `CC1Cc2c(cc(N3CC[C@@H](O)C3)cc2N2CCCc3cc(-c4cnn(C)c4)c(C(F)F)cc32)N(C)C1=O` (stereo partly drawn) [Example 193, 7-(Difluoromethyl)-7′-((R)-3-hydroxypyrrolidin-1-yl)-1′,3′-dimethyl-6-(1-methyl-1H-pyrazol-4-yl)-3,3′,4,4′-tetrahydro-2H-[1,5′-biquinolin]-2′(1′H)-one], the IC50 is 2010 to 5000 nM in assay [1] (BRD4 FL) and over 10 nM in assay [2].
For the molecule `Cc1cc2c(N3CCCN(C)c4cc(-c5cnn(C)c5)c(C#N)cc43)cccc2[nH]c1=O` [Example 5], the inhibition at 10 µM stood at 48% in assay [1] (BRD4 FL, compound at 10 μM) and 38% in assay [2].
Regarding `CNS(=O)(=O)c1ccc2c(c1)N(c1cc(OC)cc3c1cc(C)c(=O)n3C)CCN2C` [Example 95], the IC50 was 2010 to 5000 nM in assay [1] (BRD4 FL) and under 50 nM in assay [2].
The like results for `Cc1cc2c(N3CCN(C)c4cc(-c5cnn(C)c5)ncc43)cc(N3CC(C)OC(C)C3)cc2n(C)c1=O` (stereo not shown) [Example 132] were, in that order, 2010 to 5000 nM and under 50 nM.
Turning to `Cc1cc2c(N3CCN(C)c4cc(-c5cnn(C)c5)ncc43)nc(N3CC4(COC4)C3)cc2n(C)c1=O` [Example 220], the half-inhibitory concentration (IC50) in assay [1] (BRD4 FL) is 2010 to 5000 nM; in assay [2], over 10 nM.
Take `Cc1cc2c(N3CCN(C)c4cc(F)c(S(N)(=O)=O)cc43)cc(N3CCOCC3)cc2n(C)c1=O` [Example 88]: the IC50 in assay [1] (BRD4 FL) was 2010 to 5000 nM; in assay [2], under 50 nM.
With `Cc1cc2c(N3CCCc4cc(-c5cnn(C)c5)c(C(F)F)cc43)nc(N3C[C@@H]4C[C@H]3CO4)cc2n(C)c1=O` [Example 219], the IC50 in assay [1] (BRD4 FL) was 2010 to 5000 nM; in assay [2] it was under 50 nM.
In the case of `CC(=O)NS(=O)(=O)c1cc2c(cc1-c1cnn(C)c1)N(C)CCN2c1cccc2c1cc(C)c(=O)n2C` [Example 112], the inhibition at 10 µM in assay [1] (BRD4 FL, compound at 10 μM) is 44%. For the same molecule, in assay [2], the IC50 is under 50 nM.
Take `COc1cc(N2CCN(C)c3cc(C4CCN(C)CC4)c(C#N)cc32)c2cc(C)c(=O)n(C)c2c1` [Example 70, 4-(7-Methoxy-1,3-dimethyl-2-oxo-1,2-dihydroquinolin-5-yl)-1-methyl-7-(1-methylpiperidin-4-yl)-1,2,3,4-tetrahydroquinoxaline-6-carbonitrile]: the IC50 fell in the range of 2010 to 5000 nM in assay [1] (BRD4 FL) and 51 to 100 nM in assay [2].
On to `COc1ccc(CN2CCN(c3cc(N4CCOCC4)cc4c3cc(C)c(=O)n4C)c3cnc(-c4cnn(C)c4)cc32)cc1` [Example 135], for which the IC50 in assay [1] (BRD4 FL) was in the range of 2010 to 5000 nM; in assay [2], 51 to 100 nM.
Consider `Cc1cc2c(N3CCCc4cc(-c5cnn(C)c5)c(C(F)F)cc43)nc(C3=CCOCC3)cc2n(C)c1=O` [Example 241, 5-(7-(Difluoromethyl)-6-(1-methyl-1H-pyrazol-4-yl)-3,4-dihydroquinolin-1(2H)-yl)-7-(3,6-dihydro-2H-pyran-4-yl)-1,3-dimethyl-1,6-naphthyridin-2(1H)-one], for which the inhibition at 10 µM in assay [1] (BRD4 FL, compound at 10 μM) is 22%. Also, the concentration for half-maximal inhibition (IC50) in assay [2] lay within 51 to 100 nM.
For `Cc1cc2c(N3CCN(C)c4cc(-c5cnn(C)c5)ncc43)cc(OC(C)C)cc2n(C)c1=O` [Example 156, 7-Isopropoxy-1,3-dimethyl-5-(1-methyl-7-(1-methyl-1H-pyrazol-4-yl)-2,3-dihydropyrido[3,4-b]pyrazin-4(1H)-yl)quinolin-2(1H)-one], the inhibition at 10 µM in assay [1] is 47%. In addition, in assay [2], the half-maximal inhibitory concentration (IC50) lay within 51 to 100 nM.
For `COc1cc(N2CCN(C)c3cc(F)c(S(=O)(=O)NC(C)=O)cc32)c2cc(C)c(=O)n(C)c2c1` [Example 104], the inhibition at 10 µM in assay [1] (BRD4 FL, compound at 10 μM) worked out at 48%. Moreover, the IC50 in assay [2] is under 50 nM.
Take `COc1cc(N2CCN(C)c3ccc(C(C)=O)cc32)c2cc(C)c(=O)n(C)c2c1` [Example 79, 5-(7-Acetyl-4-methyl-3,4-dihydroquinoxalin-1(2H)-yl)-7-methoxy-1,3-dimethylquinolin-2(1H)-one]: the inhibition at 10 µM in assay [1] (BRD4 FL, compound at 10 μM) amounted to 56%. Moreover, in assay [2], the IC50 fell in the range of 51 to 100 nM.
`Cc1cc2c(N3CCN(C)c4cc(-c5cnn(C)c5)ncc43)cc(N3CCS(=O)(=O)CC3)cc2n(C)c1=O` [Example 148]: in assay [1] (BRD4 FL, compound at 10 μM), the inhibition at 10 µM is 55%. Besides, the IC50 in assay [2] is over 10 nM.
In the case of `Cc1cc2c(N3CCN(C)c4cc(-c5cnn(C)c5)ncc43)cc(OC3CCOC3)cc2n(C)c1=O` (stereo not shown) [Example 157], the inhibition at 10 µM in assay [1] (BRD4 FL, compound at 10 μM) worked out at 41%. Moreover, in assay [2], the half-maximal inhibitory concentration (IC50) lay within 51 to 100 nM.
